The subject of one experiment is PBMCs. The experiment can be described thus: LPS-induced TNFα/IL-8 release in PBMC cells (assay b). Particulars: LPS-stimulated; read-out: IC50 Values for Inhibition of Cytokine Release PBMCs IL-8. It counts as cell-based, human. The protocol: Peripheral blood mononuclear cells (PBMCs) from healthy subjects are separated from whole blood using a density gradient (Lymphoprep, Axis-Shield Healthcare). The PBMCs are seeded in 96 well plates and treated with compounds at the desired concentration for 2 hours before addition of 1 ng/mL LPS (Escherichia Coli 0111:B4 from Sigma Aldrich) for 24 hours under normal tissue culture conditions (37° C., 5% CO2). The supernatant is harvested for determination of IL-8 and TNFα concentrations by sandwich ELISA (Duo-set, R&D systems) and read on the fluorescence microplate reader (Varioskan® Flash, ThermoFisher Scientific).

A further experiment has as its target GSK 3α (Homo sapiens (Human), UniProt P49840). The experiment can be described thus: GSK 3α enzyme inhibition (FRET, Z-LYTE; Method 2). Particulars: read-out: IC50 Values for Enzyme Inhibition GSK3α. It counts as biochemical. The gist of the method:
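Z-LYTE FRET assay: GSK3-α (500 ng/mL stock) preincubated 105 min at RT with compound at 10, 1, 0.1 or 0.01 μg/mL stock. FRET peptide (8 μM stock) and ATP (40 μM stock) were then added for 1 h, followed by protease development for 1 h. Phosphorylation was read as coumarin/fluorescein emission ratio.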

Each structure is given as a SMILES string.

Sequence of GSK 3α (P49840 whole entry): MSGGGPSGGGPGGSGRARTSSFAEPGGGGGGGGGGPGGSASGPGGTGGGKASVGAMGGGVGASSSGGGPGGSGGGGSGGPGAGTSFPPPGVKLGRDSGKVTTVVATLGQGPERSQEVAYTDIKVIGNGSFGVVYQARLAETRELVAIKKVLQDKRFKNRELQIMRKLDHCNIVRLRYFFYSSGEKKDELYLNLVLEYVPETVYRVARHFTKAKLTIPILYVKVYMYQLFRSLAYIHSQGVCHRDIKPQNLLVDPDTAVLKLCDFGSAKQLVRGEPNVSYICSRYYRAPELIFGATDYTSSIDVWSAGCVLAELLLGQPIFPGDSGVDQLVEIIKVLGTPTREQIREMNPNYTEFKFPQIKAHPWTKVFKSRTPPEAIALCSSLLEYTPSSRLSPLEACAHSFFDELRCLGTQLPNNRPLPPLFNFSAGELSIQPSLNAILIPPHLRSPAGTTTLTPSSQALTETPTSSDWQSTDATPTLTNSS

For the compound `COCCOCCOCCOCCNC(=O)c1cc(Nc2cc(Oc3ccc(NC(=O)Nc4cc(C(C)(C)C)cc(NS(C)(=O)=O)c4OC)c4ccccc34)ccn2)cc(OC)c1` [Example 85(v), 3-[[4-[[4-[[5-tert-Butyl-3-(methanesulfonamido)-2-methoxyphenyl]-carbamoylamino]-1-naphthyl]oxy]-2-pyridyl]amino]-5-methoxy-N-[2-[2-[2-(2-methoxyethoxy)ethoxy]ethoxy]-ethyl]benzamide], the values for the IC50 with PBMCs and at GSK 3α were 0.0004 µM and 2.52 µM, respectively.
